Experimental data: patent US20160113911A1, “METHODS AND COMPOSITIONS FOR THE TREATMENT OF CANCER” (THE GENERAL HOSPITAL CORPORATION, priority 2013, published 2016)
Entries after “also recorded” stand apart in the source; their conditions may differ.

How the values were obtained:
Type in all cases: cell-based, human
KDM4A = KDM4A protein levels by western blot; conditions: RPE cells; 1% O2
Description: Western blot analyses were performed according to (Black et al., 2010).
Western blots were performed as in (Black et al., 2010). Briefly, adherent cells were either scraped directly into PBS, or washed with PBS, trypsinized and collected by centrifuging at 2,000 RPM for 5 minutes. For preparation of whole-cell lysates, cell pellets were washed once in ice-cold PBS and resuspended in RIPA lysis buffer [50 mM Tris pH 7.4, 150 mM NaCl, 0.25% Sodium Deoxycholate, 1% NP40, 1 mM EDTA, 10% Glycerol] supplemented with complete protease inhibitor and PhosSTOP™ phosphatase inhibitor cocktails (Roche). Cells were lysed on ice for 15 minutes and immediately frozen at −80° C. for 10 min. Lysates were subsequently sonicated at 70% amplitude for 15 minutes in a QSonica Q800R™ and cleared of cell debris by centrifuging at 12,000 RPM for 15 minutes, before being analyzed by western blotting. For HIF1α expression, adherent cells were washed twice with ice-cold PBS and scraped directly in warmed 1× Laemmli buffer. Samples were sonicated at 70% amplitude for 15 minutes and boiled immediately prior to western blotting.

RPE cells = assay: Flow cytometry cell cycle analysis; conditions: normoxia and hypoxia
Description: Asynchronously growing, or G1/S arrested cells were prepared and fixed as in (Black et al., 2010). Cells were stained with 10 μM EdU for 1 hour prior to collection. Cell cycle was analyzed by PI staining or EdU incorporation using Click-IT EdU™ Flow Cytometry Assay Kit (Life Technologies). Flow cytometry of CD4+ T cells and cell cycle distribution were analyzed using a BD FACS ARIA II™.

overall translation = assay: Translation assay (AHA incorporation, Click-IT); conditions: HEK 293T; 24h; 250 nM JIB-04 and 0.1 ng/ml Rapamycin
Description: Translation assays were performed following supplier's instructions from Click-IT™ Metabolic Labeling Reagents for Proteins (Life Technologies). Cells were incubated in presence of DMEM without Cysteine and Methionine for 1 h, then grown in presence of 50 μM AHA (L-azidohomoalanine, Life Technologies C10102) for 2h, harvested and washed extensively with PBS. Cells were lysed in 1% SDS in 50 mM Tris pH8 with 10% Glycerol and sonicated using a bath sonicator (QSonica™ Q800R) for 30 min. The Click-IT reactions were performed following the supplier's instructions from Click-IT™ Protein Reaction Buffer Kit (Life Technologies). Briefly, 50 μg to 100 μg of lysates were used per reaction with 40 μM Alkyne-Biotin (Life Technologies B10185), and 10 μg were assayed by western blot using a Streptavidin antibody conjugated to HRP.

translation initiation = assay: Polysome profiles; conditions: 293T cells
[1] = test system: 1q12h copy gain in RPE cells; assay: FISH for site-specific copy gain; conditions: RPE cells; 1% O2 24 hours; JIB-04 62.5 nM or 2 mM succinate pre-treatment, or overexpression
Description: FISH was performed as described in (Manning et al., 2010). Probes for 1q12h, 1q telomere, and chromosome 2, 6, 8, and X alpha satellite were purchased from Rainbow Scientific. Probes for 1q12 (RP11-80L2), Xq13.2 (RP11-451A22), Xq13.1 (RP11-177A4) were purchased as BAC clones from Children's Hospital Oakland Research Institute (CHORI BacPac) FISH verified clone repository. Oligonucleotide probes for 1q21.2 (BCL9) and 1q23.3 were purchased from Agilent (SureFISH). BACS were prepared utilizing PureLink HiPure Plasmid Filter Maxiprep kit (Life Technologies) using the recommended modified wash buffer. Probes were nick translated (Abbot Molecular Kit) in the presence of fluorescently labeled dTTP (Enzo Life Science). Images of multiple planes of fields of nuclei were acquired on an Olympus IX81 Spinning Disk Microscope and analyzed using Slidebook 5.0 software. We used a conservative scoring metric for copy gain. Any foci that were touching were scored as a single foci to prevent increased numbers due to normally replicated foci. For RPE cells, copy gain was scored as any cell with 3 or more distinct foci. For 293T cells, copy gain was scored for any cell with 5 or more distinct foci. For RPE cells each experiment includes at least one replicate from the two different polyclonal stable cell preparations. At least 100 cells for each replicate were scored for all experiments except analysis of single cell clones.
Cells were plated onto culture dishes and allowed to adhere for 20-24 hrs in normoxia (5% CO2, 21% O2, and 74% N2). For hypoxic treatment, cells were maintained in a HERA Cell 150™ incubator (Thermo Scientific) flushed with 5% CO2, 1% O2 or 4% O2, and balanced with N2 for the duration of the experiment. Incubator calibrations were carried out by Bianchi Associates Calibrations/Verifications.
To release, cells were washed twice with culture medium pre-conditioned in normoxia or hypoxia, and supplied with fresh pre-conditioned media. For JIB-04 treatment, normoxic cells were pre-treated with 62.5 nM JIB-04 (Xcessbio) for 24 hrs, then treated again with JIB-04 and either transferred to 1% O2 or maintained in normoxia for an additional 24 hrs. Succinate was administered at a final concentration of 2 mM and cells were either maintained in normoxia for 72 hrs or maintained in normoxia for 48 hrs prior to being transferred to 1% O2 for 24 hrs.
FISH was performed as described in (Black et al., 2013; Manning et al., 2010). Probes for 1q12h, 1q telomere, chromosome 8 centromere (alpha satellite), and X centromere (alpha satellite) were purchased from Rainbow Scientific. Probes for Xq13.1 (RP11-177A4), Zebrafish BCL9 (CH73-15J19) and Zebrafish IGBP1 (CH73-223D24) were purchased as BAC clones from Children's Hospital Oakland Research Institute (CHORI BacPac) clone repository. Probes for 1q21.2 (BCL9) and 1q23.3 were purchased from Agilent (SureFISH).
FISH was performed as described in (Black et al., 2013; Manning et al., 2010). Probes for 1q12h, 1q telomere, chromosome 8 centromere (alpha satellite), and X centromere (alpha satellite) were purchased from Rainbow Scientific. Probes for Xq13.1 (RP11-177A4), Zebrafish BCL9 (CH73-15J19) and Zebrafish IGBP1 (CH73-223D24) were purchased as BAC clones from Children's Hospital Oakland Research Institute (CHORI BacPac) clone repository. Probes for 1q21.2 (BCL9) and 1q23.3 were purchased from Agilent (SureFISH). BACS were prepared utilizing PureLink HiPure™ Plasmid Filter Maxiprep kit (Life Technologies) using the recommended modified wash buffer. Probes were nick translated (Abbot Molecular Kit) in the presence of fluorescently labeled dTTP (Enzo Life Science). Images of multiple planes of fields of nuclei were acquired on an Olympus IX81 T Spinning Disk Microscope and analyzed using Slidebook™ 5.0 software. A conservative scoring metric was used for copy gain. Any foci that were touching were scored as a single copy to prevent increased numbers due to normally replicated foci.

HEK 293T cells [2] = assay: Monitored cell proliferation assay (xCELLigence growth curves, doubling time); conditions: HEK293T
Description: Seventy two hours post transfection 1×10^4 HEK 293T cells were seeded per well of a 96 well plate, and then treated after 24h. Cell proliferation was monitored with an xCELLigence system (Roche) (Vistejnova et al., 2009).

HEK 293T cells [3] = assay: MTT proliferation and viability assay; conditions: JIB-04 vs vehicle, 48h
Description: For tissue culture and generation of stable cell lines see (Black et al., 2010). Rapamycin (LC Laboratories) and AZD8055 (Selleckchem) were used at indicated concentrations. […] JIB-04 (Xcessbio) was used at a final concentration of 250 nM. For the translation assays, DMEM depleted of Methionine and Cysteine (Life Technologies 21013-024) was used.
MTT assays were performed following supplier's instructions from the Cell Proliferation Kit I™ (MTT) from Roche. Briefly, 1×10^4 cells were seeded per well of a 96 well plate and grown for 24h before treatment. Forty-eight hours later, cells were assayed.

## Clc1ccc(N/N=C(\c2ccccc2)c2ccccn2)nc1 [JIB-04]
KDM4A
  KDM4A protein levels in hypoxia: did not substantially alter KDM4A protein levels in hypoxia
RPE cells
  cell cycle profile: did not result in significant differences in cell cycle between normoxic and hypoxic cells
Overall translation
  overall translation with JIB-04 and Rapamycin: enhanced the alteration of translation observed after Rapamycin treatment
Translation initiation; JIB-04 250 nM and Rapamycin 0.1 ng/ml
  polysome profile, JIB-04 with Rapamycin: can sensitize cells to Rapamycin by increasing their translation initiation defect
Translation initiation; JIB-04 250 and 500 nM
  polysome profile, JIB-04 alone: leads to a translation initiation defect
[1]
  hypoxia-dependent copy gain of 1q12h: did significantly reduce hypoxia-dependent copy gain of 1q12h
HEK 293T cells [2]; 250 nM JIB-04 and 1 ng/ml of Rapamycin
  cell sensitivity to Rapamycin (doubling time between 5 h and 35 h): increases cell sensitivity to Rapamycin
HEK 293T cells [2]; 250 nM JIB-04 and 50 nM of AZD8055
  cell sensitivity to AZD8055 (doubling time between 5 h and 35 h): increases cell sensitivity to AZD8055
HEK 293T cells [3]
  sensitivity to Rapamycin and AZD8055 upon JIB-04 co-treatment: enhanced the effect of both Rapamycin and AZD8055; also recorded: more sensitive to Rapamycin and AZD8055 than cells treated with vehicle
